Laboratory results taken from article PMC6864136 (Saudi Journal of Biological Sciences, 2018).
≈ marks a conversion by molar mass, not a printed value. Where “and” joins values, the source holds several entries; their conditions need not be identical. Identical values can stand only once. Like-named read-outs stand apart in the source and are kept apart here.

Key:
electric-eel AChE = electric-eel AChE (Electrophorus electricus, UniProt O42275); assay: In vitro acetylcholinesterase inhibition; type: biochemical
electric-eel AChE, sequence (O42275 24-633): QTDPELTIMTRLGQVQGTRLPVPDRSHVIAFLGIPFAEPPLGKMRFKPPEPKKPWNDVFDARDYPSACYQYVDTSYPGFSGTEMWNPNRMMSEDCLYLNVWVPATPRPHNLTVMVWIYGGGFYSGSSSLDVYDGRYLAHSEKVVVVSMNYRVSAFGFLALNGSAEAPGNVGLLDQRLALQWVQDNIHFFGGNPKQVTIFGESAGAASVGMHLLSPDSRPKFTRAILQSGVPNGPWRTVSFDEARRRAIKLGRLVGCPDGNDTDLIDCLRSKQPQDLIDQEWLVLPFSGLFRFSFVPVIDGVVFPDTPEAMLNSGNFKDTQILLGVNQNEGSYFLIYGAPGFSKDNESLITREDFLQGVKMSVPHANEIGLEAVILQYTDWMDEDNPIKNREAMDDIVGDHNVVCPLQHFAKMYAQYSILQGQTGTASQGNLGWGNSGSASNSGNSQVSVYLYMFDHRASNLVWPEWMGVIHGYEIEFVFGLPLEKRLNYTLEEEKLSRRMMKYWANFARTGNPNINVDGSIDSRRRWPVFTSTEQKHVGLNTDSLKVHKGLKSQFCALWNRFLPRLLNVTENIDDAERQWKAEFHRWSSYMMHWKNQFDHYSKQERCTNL

[1] = system: Spodoptera frugiperda larvae; assay: whole plant or invertebrate; type: in vivo; conditions: for Antifeedant activity CE50 / Antifeedant activity CE50 (µg/mL): S. frugiperda larvae, no-choice; for Antifeedant activity CE50 / Antifeedant activity CE50 (µg/mL) / EC50: 95% confidence limits in parentheses; for EC50: Spodoptera frugiperda, in Zea mays, read-out: Antifeedant activity CE50 (µg/mL), S. frugiperda larvae, no-choice
[2] = system: Spodoptera frugiperda larvae; type: in vivo
Artemia salina larvae = assay: Brine shrimp lethality; conditions: A. salina nauplii; 95% confidence limits in parentheses
[3] = S. frugiperda larvae, topical application, 95% confidence limits in parentheses

Compound | IC50 (electric-eel AChE) [µM] | Antifeedant activity CE50 [1] | Antifeedant activity CE50 (µg/mL) [1] | EC50 [1] [µg/mL] | Antifeedant index (% AI) ([1]; concentration 25 µg/mL) [%] | Antifeedant index (% AI) ([1]; concentration 50 µg/mL) [%] | Antifeedant index (% AI) ([1]; concentration 100 µg/mL) [%] | Antifeedant index (% AI) ([1]; concentration 250 µg/mL) [%] | Antifeedant index (% AI) ([1]; concentration 500 µg/mL) [%] | Antifeedant index (% AI) ([1]; concentration 1000 µg/mL) [%] | Insecticidal activity LD50 (mg/g of insect) ([2]; in vivo) | Insecticidal activity LD50 (mg/g of insect) [2, 3] | LC50 (µg/mL), toxicity in Artemia salina larvae test (Artemia salina larvae)
C=CCc1ccc(O)c(OC)c1 [Compound 1, Eugenol] | 180 | < 210 µg/mL | 187.7 (176.6–198.9) µg/mL | 188 (≈ 1140 µM) | 13.5 | 32.3 | 44.9 | 55.3 | 62.8 | 75.0 |  |  | 
C=CCc1ccc(OC)c(OC)c1 [Compound 2, O-methyleugenol] | 157 |  |  | 504 (≈ 2830 µM) |  |  |  |  |  |  |  |  | 
C=CCc1ccc(OC(C)=O)c(OC)c1 [Compound 6, acetyleugenol] | 184 |  |  |  |  | 17.8 | 26.7 | 36.6 | 44.4 | 55.3 | 2.02 (1.87–2.14) mg/g of insect |  | 
C=CCc1ccc(OC(=O)c2ccc([N+](=O)[O-])cc2)c(OC)c1 [Compound 7, O-(4-nitrobenzoyl)eugenol] | 314 |  |  | 724 (≈ 2310 µM) |  | 23.8 | 31.6 | 39.4 | 45.1 | 55.0 |  |  | 
C/C=C/c1ccc(OC)c(OC)c1 [Compound 9, O-methylisoeugenol] | 151 |  |  | 536 (≈ 3010 µM) |  | 20.5 | 33.2 | 40.1 | 47.3 | 58.5 |  |  | 
CC=Cc1ccc(OC(=O)c2ccc([N+](=O)[O-])cc2)c(OC)c1 [Compound 12, O-(4-nitrobenzoyl)isoeugenol] | 228 |  |  | 388 (≈ 1240 µM) |  | 14.4 | 30.2 | 41.5 | 52.8 | 66.9 |  |  | 
CCCc1ccc(O)c(OC)c1 [Compound 13, 2-methoxy-4-propylphenol] | 132 ± 2.77 |  |  | 319 (≈ 1920 µM) |  | 11.7 | 26.7 | 38.6 | 65.0 | 72.9 |  | 2.02 (1.87–2.17) mg/g of insect | 
COc1cc(C2OCOCC2C)ccc1O (centres unmarked) [Compound 14, 2-methoxy-4-(5-methyl-1,3-dioxan-4-yl)-phenol] | 168 |  |  | 1800 (≈ 8010 µM) |  |  | 10.5 | 20.0 | 33.2 | 41.9 |  |  | 
CC1(C)C(C=C(Cl)Cl)C1C(=O)OC(C#N)c1cccc(Oc2ccccc2)c1 (centres unmarked) [Cypermethrin, cypermethrin, reference compound] |  |  | 23.83 (22.55–25.15) µg/mL | 23.9 (≈ 57.3 µM) | 49.2 | 56.0 | 61.0 | 66.5 | 72.7 | 77.9 |  |  | 404.2 (383.2–425.2) µg/mL
CNC(=O)ON=C(C)SC [Methomyl, methomyl, reference compound] | 1.91 |  |  |  |  |  |  |  |  |  |  | 0.31 (0.29–0.33) mg/g of insect | 205.2 (184.9–225.5) µg/mL
Isoeugenol [Compound 8] |  | 158.51 µg/mL and < 210 µg/mL | 158.5 (149.3–167.8) µg/mL |  | 15.6 | 37.3 | 45.6 | 56.6 | 65.9 | 78.5 |  |  | 
